Measured values as given in patent US20250282746A1, “HALOGEN-SUBSTITUTED ISOINDOLINE COMPOUND AND USE THEREOF” (CHENGDU FENDI PHARMACEUTICAL CO., LTD., priority 2022, published 2025).

What was measured:
MV-4-11 cells = assay: Antiproliferative activity against MV-4-11 cells (CellTiter-Glo, 72 h); format: cell-based; conditions: Homo sapiens, MV4-11; MV-4-11 cells, 72 h; read-out: Antiproliferative activity IC50
Procedure: MV411 cells in the logarithmic growth phase were diluted in a medium (RPMI+10% FBS) and plated at 5,000 cells/well in 96-well whole black plates (WHB) with 50 μL/well. After plating, the plates were incubated in an incubator at 5% CO2 and 37° C. for 24 h before the compounds were added. The compounds were prepared into a 10 mM stock solution in DMSO and diluted in a culture medium to the desired concentrations (a final DMSO concentration of 0.2%). […] The plates were incubated at 5% CO2 and 37° C. for 72 h. After the incubation was complete, the plates were equilibrated at room temperature for 30 min. CellTiter-Glo® Reagent (Promega G7573) was added at 100 μL/well. The plates were shaken for 12 min on a microplate shaker. The luminescence value was measured at room temperature by the GloMax navigator (Promega GM2010).

GSPT1 protein = target: T1, GSPT1 protein (Homo sapiens, UniProt P15170); assay: Degradation of GSPT1 protein in NB-4 cells (Western blot); format: cell-based; conditions: NB-4 cells, compound 1 μM, 6 h; read-out: GSPT1 degradation
T1 construct: The whole cell lysate was prepared using a RIPA lysis buffer; endogenous in cells; host or cells: NB-4 cells
T1 sequence (P15170 whole entry): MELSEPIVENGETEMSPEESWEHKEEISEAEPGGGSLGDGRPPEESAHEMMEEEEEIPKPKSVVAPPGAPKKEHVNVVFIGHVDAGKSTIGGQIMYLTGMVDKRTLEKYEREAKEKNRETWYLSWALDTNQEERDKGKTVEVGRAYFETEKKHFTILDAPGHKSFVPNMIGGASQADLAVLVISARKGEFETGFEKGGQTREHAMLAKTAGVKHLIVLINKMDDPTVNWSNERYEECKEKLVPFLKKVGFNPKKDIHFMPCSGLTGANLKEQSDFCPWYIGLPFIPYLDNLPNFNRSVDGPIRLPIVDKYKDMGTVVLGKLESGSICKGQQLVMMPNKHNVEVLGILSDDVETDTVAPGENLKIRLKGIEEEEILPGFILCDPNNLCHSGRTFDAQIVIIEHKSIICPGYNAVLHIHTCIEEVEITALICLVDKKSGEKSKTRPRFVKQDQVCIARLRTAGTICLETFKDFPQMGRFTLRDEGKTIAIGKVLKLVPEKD
Procedure: 150 μL of DMSO and the compounds (1 μM) were added, and the mixture was incubated in an incubator at 5% CO2 and 37° C. for 6 h. The cells were centrifuged, and the culture medium was discarded. PBS was added for washing and then discarded. The whole cell lysate was prepared using a RIPA lysis buffer containing a protease inhibitor cocktail and a phosphatase inhibitor, and incubated on ice for 30 min. The mixture was centrifuged, and the cell debris was discarded. The whole cell lysate supernatant was collected and transferred to a fresh EP tube. Samples were prepared using a loading buffer after a BCA protein assay. The samples were incubated in a metal bath at 100° C. for 10 min.
The samples were electrophoretically separated from proteins on a 4-20% precast gel (SDS-PAGE gel), transferred to a PVDF membrane, blocked with 5% NFDM/TBST for 1 h at room temperature, co-incubated overnight at 4° C. with the primary antibody, and co-incubated for 2 h at room temperature with the secondary antibody on the next day. The signals were detected on the […]™ imaging system.

IC50 (MV-4-11 cells) [nM] | inhibition at 1 µM (GSPT1 protein) [%] | SMILES
1 to 10 | > 80 | O=C1CCC(N2Cc3c(ccc(CNC(=O)c4cc5ccccc5o4)c3F)C2=O)C(=O)N1 (stereo not shown) [FDAB-45]
1 to 10 | > 80 | O=C1CCC(N2Cc3c(ccc(CNC(=O)c4cc5cc(Cl)ccc5o4)c3F)C2=O)C(=O)N1 (stereo not shown) [FDAB-47]
> 1000 | < 25 | O=C1CCC(N2Cc3c(ccc(CNC(=O)c4ccc(F)cc4)c3F)C2=O)C(=O)N1 (stereo not shown) [FDAB-49]
1 to 10 | > 80 | O=C1CCC(N2Cc3c(ccc(CNC(=O)c4ccc(Cl)cc4Cl)c3F)C2=O)C(=O)N1 (stereo not shown) [FDAB-50]
10 to 100 | > 80 | Cc1ccc(C(=O)NCc2cc3c(cc2F)C(=O)N(C2CCC(=O)NC2=O)C3)cc1 (stereo not shown) [FDAB-51]
1 to 10 | > 80 | O=C1CCC(N2Cc3cc(CNC(=O)c4ccc(C(F)(F)F)cc4)c(F)cc3C2=O)C(=O)N1 (stereo not shown) [FDAB-52]
10 to 100 | > 80 | O=C1CCC(N2Cc3cc(CNC(=O)c4ccc(Cl)c(F)c4)c(F)cc3C2=O)C(=O)N1 (stereo not shown) [FDAB-53]
10 to 100 | 50 to 80 | N#Cc1cc(C(=O)NCc2cc3c(cc2F)C(=O)N(C2CCC(=O)NC2=O)C3)ccc1Cl (stereo not shown) [FDAB-54]
1 to 10 | > 80 | O=C1CCC(N2Cc3cc(CNC(=O)c4ccc(Cl)c(O)c4)c(F)cc3C2=O)C(=O)N1 (stereo not shown) [FDAB-55]
> 1000 | < 25 | O=C1CCC(N2Cc3cc(CNC(=O)c4ccc(Cl)cn4)c(F)cc3C2=O)C(=O)N1 (stereo not shown) [FDAB-56]
10 to 100 | > 80 | Cc1nc2cc(C(=O)NCc3cc4c(cc3F)C(=O)N(C3CCC(=O)NC3=O)C4)ccc2s1 (stereo not shown) [FDAB-58]
> 1000 | > 80 | Cn1ccc2ccc(C(=O)NCc3cc4c(cc3F)C(=O)N(C3CCC(=O)NC3=O)C4)cc21 (stereo not shown) [FDAB-59]
10 to 100 | > 80 | O=C1CCC(N2Cc3cc(CNC(=O)c4ccc5ccccc5n4)c(F)cc3C2=O)C(=O)N1 (stereo not shown) [FDAB-60]
1 to 10 | > 80 | O=C1CCC(N2Cc3c(ccc(CNC(=O)c4ccc(C(F)(F)F)cc4)c3F)C2=O)C(=O)N1 (stereo not shown) [FDAB-61]
> 1000 | < 25 | O=C1CCC(N2Cc3c(ccc(CNC(=O)c4ccc(Cl)cn4)c3F)C2=O)C(=O)N1 (stereo not shown) [FDAB-62]
> 1000 | < 25 | CCC#CC(=O)NCc1cc2c(cc1F)C(=O)N(C1CCC(=O)NC1=O)C2 (stereo not shown) [FDAB-63]
100 to 1000 | 50 to 80 | O=C(C#CC1CC1)NCc1cc2c(cc1F)C(=O)N(C1CCC(=O)NC1=O)C2 (stereo not shown) [FDAB-64]
10 to 100 | > 80 | O=C1CCC(N2Cc3c(ccc(CNC(=O)c4ccc5ccccc5n4)c3F)C2=O)C(=O)N1 (stereo not shown) [FDAB-66]
1 to 10 | > 80 | O=C1CCC(N2Cc3c(ccc(CNC(=O)c4cc5ccccc5o4)c3Cl)C2=O)C(=O)N1 (stereo not shown) [FDAB-67]

IC50 (MV-4-11 cells) [nM] | inhibition at 1 µM (GSPT1 protein) [%] | SMILES
1 to 10 | 50 to 80 | O=C1CCC(N2Cc3c(ccc(CNC(=O)c4cc5cc(F)ccc5o4)c3Cl)C2=O)C(=O)N1 (stereo not shown) [FDAB-69]
100 to 1000 | 25 to 50 | O=C1CCC(N2Cc3c(ccc(CNC(=O)c4ccc(Cl)cc4)c3Cl)C2=O)C(=O)N1 (stereo not shown) [FDAB-70]
> 1000 | < 25 | O=C1CCC(N2Cc3cc(CNC(=O)c4cc5ccccc5o4)c(Cl)cc3C2=O)C(=O)N1 (stereo not shown) [FDAB-71]
> 1000 | < 25 | O=C1CCC(N2Cc3cc(CNC(=O)c4cc5cc(Cl)ccc5o4)c(Cl)cc3C2=O)C(=O)N1 (stereo not shown) [FDAB-72]
> 1000 | < 25 | O=C1CCC(N2Cc3cc(CNC(=O)c4cc5cc(F)ccc5o4)c(Cl)cc3C2=O)C(=O)N1 (stereo not shown) [FDAB-73]
> 1000 | < 25 | O=C1CCC(N2Cc3cc(CNC(=O)c4ccc(Cl)cc4)c(Cl)cc3C2=O)C(=O)N1 (stereo not shown) [FDAB-74]
1 to 10 | 50 to 80 | O=C1CCC(N2Cc3c(ccc(CNC(=O)c4cc5ccccc5[nH]4)c3Cl)C2=O)C(=O)N1 (stereo not shown) [FDAB-75]
> 1000 | < 25 | Cc1ccc(C(=O)NCc2ccc3c(c2Cl)CN(C2CCC(=O)NC2=O)C3=O)cc1 (stereo not shown) [FDAB-76]
> 1000 | < 25 | O=C1CCC(N2Cc3c(ccc(CNC(=O)c4ccc(F)cc4)c3Cl)C2=O)C(=O)N1 (stereo not shown) [FDAB-77]
> 1000 | < 25 | N#Cc1cc(C(=O)NCc2ccc3c(c2Cl)CN(C2CCC(=O)NC2=O)C3=O)ccc1Cl (stereo not shown) [FDAB-78]
10 to 100 | > 80 | O=C1CCC(N2Cc3c(ccc(CNC(=O)c4ccc(Cl)c(O)c4)c3Cl)C2=O)C(=O)N1 (stereo not shown) [FDAB-79]
> 1000 | < 25 | O=C1CCC(N2Cc3c(ccc(CNC(=O)c4ccc(Cl)cn4)c3Cl)C2=O)C(=O)N1 (stereo not shown) [FDAB-80]
> 1000 | < 25 | O=C1CCC(N2Cc3c(ccc(CNC(=O)c4ccccc4)c3F)C2=O)C(=O)N1 (stereo not shown) [FDAB-81]
> 1000 | < 25 | N#Cc1cc(C(=O)NCc2ccc3c(c2F)CN(C2CCC(=O)NC2=O)C3=O)ccc1Cl (stereo not shown) [FDAB-82]
10 to 100 | > 80 | O=C1CCC(N2Cc3c(ccc(CNC(=O)c4ccc(Cl)c(O)c4)c3F)C2=O)C(=O)N1 (stereo not shown) [FDAB-83]
< 1 | > 80 | O=C1CCC(N2Cc3c(ccc(CNC(=O)c4ccc(-c5ccccc5)cc4)c3F)C2=O)C(=O)N1 (stereo not shown) [FDAB-84]
10 to 100 | > 80 | COc1ccc(C(=O)NCc2ccc3c(c2F)CN(C2CCC(=O)NC2=O)C3=O)cc1 (stereo not shown) [FDAB-85]
1 to 10 | > 80 | CN(C)c1ccc(C(=O)NCc2ccc3c(c2F)CN(C2CCC(=O)NC2=O)C3=O)cc1 (stereo not shown) [FDAB-86]
< 1 | < 25 | O=C1CCC(N2Cc3c(ccc(CNC(=O)c4ccc5cc6ccccc6cc5c4)c3F)C2=O)C(=O)N1 (stereo not shown) [FDAB-87]

IC50 (MV-4-11 cells) [nM] | inhibition at 1 µM (GSPT1 protein) [%] | SMILES
> 1000 | < 25 | [2H]c1c([2H])c([2H])c(C(=O)NCc2ccc3c(c2F)CN(C2CCC(=O)NC2=O)C3=O)c([2H])c1[2H] (stereo not shown) [FDAB-88]
> 1000 | < 25 | Cc1cccc(C(=O)NCc2ccc3c(c2F)CN(C2CCC(=O)NC2=O)C3=O)c1 (stereo not shown) [FDAB-89]
1 to 10 | > 80 | CCc1ccc(C(=O)NCc2ccc3c(c2F)CN(C2CCC(=O)NC2=O)C3=O)cc1 (stereo not shown) [FDAB-90]
< 1 | > 80 | CCCc1ccc(C(=O)NCc2ccc3c(c2F)CN(C2CCC(=O)NC2=O)C3=O)cc1 (stereo not shown) [FDAB-91]
< 1 | > 80 | CC(C)c1ccc(C(=O)NCc2ccc3c(c2F)CN(C2CCC(=O)NC2=O)C3=O)cc1 (stereo not shown) [FDAB-93]
1 to 10 | > 80 | C=Cc1ccc(C(=O)NCc2ccc3c(c2F)CN(C2CCC(=O)NC2=O)C3=O)cc1 (stereo not shown) [FDAB-95]
1 to 10 | > 80 | C#Cc1ccc(C(=O)NCc2ccc3c(c2F)CN(C2CCC(=O)NC2=O)C3=O)cc1 (stereo not shown) [FDAB-96]
1 to 10 | > 80 | O=C1CCC(N2Cc3c(ccc(CNC(=O)c4ccc(C5CC5)cc4)c3F)C2=O)C(=O)N1 (stereo not shown) [FDAB-97]
1 to 10 | > 80 | O=C1CCC(N2Cc3c(ccc(CNC(=O)c4ccc5c(c4)CC5)c3F)C2=O)C(=O)N1 (stereo not shown) [FDAB-98]
10 to 100 | 50 to 80 | CC(=O)c1ccc(C(=O)NCc2ccc3c(c2F)CN(C2CCC(=O)NC2=O)C3=O)cc1 (stereo not shown) [FDAB-99]
< 1 | > 80 | O=C1CCC(N2Cc3c(ccc(CNC(=O)c4ccc(Oc5ccccc5)cc4)c3F)C2=O)C(=O)N1 (stereo not shown) [FDAB-101]
> 1000 | < 25 | COc1ccc(C(=O)NCc2ccc3c(c2F)CN(C2CCC(=O)NC2=O)C3=O)cc1OC (stereo not shown) [FDAB-102]
< 1 | > 80 | CC(C)(C)Oc1ccc(C(=O)NCc2ccc3c(c2F)CN(C2CCC(=O)NC2=O)C3=O)cc1 (stereo not shown) [FDAB-103]
> 1000 | < 25 | COc1cc(C)ccc1C(=O)NCc1ccc2c(c1F)CN(C1CCC(=O)NC1=O)C2=O (stereo not shown) [FDAB-104]
10 to 100 | > 80 | O=C1CCC(N2Cc3c(ccc(CNC(=O)c4ccc5c(c4)C(=O)CC5)c3F)C2=O)C(=O)N1 (stereo not shown) [FDAB-106]
> 1000 | < 25 | CS(=O)(=O)c1ccc(C(=O)NCc2ccc3c(c2F)CN(C2CCC(=O)NC2=O)C3=O)cc1 (stereo not shown) [FDAB-107]
> 1000 | < 25 | O=C1CCC(N2Cc3c(ccc(CNC(=O)c4ccc(CO)cc4)c3F)C2=O)C(=O)N1 (stereo not shown) [FDAB-108]
1 to 10 | > 80 | Cc1ccc(C(=O)NCc2ccc3c(c2F)CN(C2CCC(=O)NC2=O)C3=O)c(O)c1 (stereo not shown) [FDAB-109]
